pIC50: −log10 of the molar value.
Columns and labels:
PIK3CA (human) = PIK3CA (human) (UniProt P42336); assay: Assessment of PIK3CA Kinase Activity
PIK3CG (human) = PIK3CG (human) (UniProt P48736); assay: Assessment of PIK3CG Kinase Activity
Sequence of PIK3CG (human) (P48736 whole entry, looked up): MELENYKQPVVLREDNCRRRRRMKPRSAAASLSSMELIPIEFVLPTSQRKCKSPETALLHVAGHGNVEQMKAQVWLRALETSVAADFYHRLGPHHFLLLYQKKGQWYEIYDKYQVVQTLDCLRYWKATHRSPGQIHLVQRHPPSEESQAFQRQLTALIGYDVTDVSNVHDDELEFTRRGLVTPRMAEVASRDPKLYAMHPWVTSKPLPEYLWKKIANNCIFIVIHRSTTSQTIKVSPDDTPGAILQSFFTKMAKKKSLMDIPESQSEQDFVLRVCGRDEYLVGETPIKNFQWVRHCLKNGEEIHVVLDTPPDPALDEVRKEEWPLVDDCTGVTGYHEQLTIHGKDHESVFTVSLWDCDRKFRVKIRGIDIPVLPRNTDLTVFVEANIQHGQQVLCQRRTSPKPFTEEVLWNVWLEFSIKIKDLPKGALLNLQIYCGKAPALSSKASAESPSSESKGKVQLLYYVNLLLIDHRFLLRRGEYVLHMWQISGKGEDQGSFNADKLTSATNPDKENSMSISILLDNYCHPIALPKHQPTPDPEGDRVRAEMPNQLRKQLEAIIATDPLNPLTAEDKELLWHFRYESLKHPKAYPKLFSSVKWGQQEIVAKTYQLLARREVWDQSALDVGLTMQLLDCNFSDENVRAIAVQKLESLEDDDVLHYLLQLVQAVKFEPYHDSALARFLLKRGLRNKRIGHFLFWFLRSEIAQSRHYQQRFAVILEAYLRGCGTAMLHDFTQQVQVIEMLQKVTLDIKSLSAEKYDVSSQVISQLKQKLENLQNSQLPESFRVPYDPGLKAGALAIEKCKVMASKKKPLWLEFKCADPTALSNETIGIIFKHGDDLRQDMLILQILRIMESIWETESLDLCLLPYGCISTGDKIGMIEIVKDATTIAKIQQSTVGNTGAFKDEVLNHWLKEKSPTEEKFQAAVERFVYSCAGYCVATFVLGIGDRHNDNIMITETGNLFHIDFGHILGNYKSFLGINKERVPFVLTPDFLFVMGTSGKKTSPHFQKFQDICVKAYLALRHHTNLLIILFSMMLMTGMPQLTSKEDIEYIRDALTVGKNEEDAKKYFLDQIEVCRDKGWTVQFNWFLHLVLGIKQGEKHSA

Sequence of PIK3CA (human) (P42336 whole entry, looked up): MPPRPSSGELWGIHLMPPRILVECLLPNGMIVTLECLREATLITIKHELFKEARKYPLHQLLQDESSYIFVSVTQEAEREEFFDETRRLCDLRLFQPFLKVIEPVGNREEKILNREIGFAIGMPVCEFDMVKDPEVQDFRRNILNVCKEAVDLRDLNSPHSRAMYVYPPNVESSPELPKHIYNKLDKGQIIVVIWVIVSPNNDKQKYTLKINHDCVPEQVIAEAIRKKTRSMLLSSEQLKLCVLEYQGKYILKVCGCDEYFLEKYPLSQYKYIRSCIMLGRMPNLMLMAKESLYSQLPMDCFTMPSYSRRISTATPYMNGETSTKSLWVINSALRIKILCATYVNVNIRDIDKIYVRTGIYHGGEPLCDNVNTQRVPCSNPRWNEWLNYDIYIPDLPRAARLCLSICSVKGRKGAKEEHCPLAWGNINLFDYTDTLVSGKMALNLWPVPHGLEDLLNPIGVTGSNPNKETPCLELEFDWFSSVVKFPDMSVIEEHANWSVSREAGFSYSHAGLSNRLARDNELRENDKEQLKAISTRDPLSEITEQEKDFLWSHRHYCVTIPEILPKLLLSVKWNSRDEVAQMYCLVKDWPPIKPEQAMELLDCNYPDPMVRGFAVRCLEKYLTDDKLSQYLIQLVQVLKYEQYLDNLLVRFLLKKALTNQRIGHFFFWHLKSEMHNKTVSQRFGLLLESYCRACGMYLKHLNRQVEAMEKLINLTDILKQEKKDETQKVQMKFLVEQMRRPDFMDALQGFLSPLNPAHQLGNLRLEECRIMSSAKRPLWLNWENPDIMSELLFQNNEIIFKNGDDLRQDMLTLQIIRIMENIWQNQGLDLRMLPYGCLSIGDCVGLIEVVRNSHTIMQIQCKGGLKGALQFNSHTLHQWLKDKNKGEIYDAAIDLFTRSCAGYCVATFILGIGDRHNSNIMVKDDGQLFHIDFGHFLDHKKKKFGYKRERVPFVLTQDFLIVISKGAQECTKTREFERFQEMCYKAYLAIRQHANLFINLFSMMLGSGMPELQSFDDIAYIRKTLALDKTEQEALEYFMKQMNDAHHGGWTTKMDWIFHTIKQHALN

SMILES | pIC50 (PIK3CA (human)) | pIC50 (PIK3CG (human))
CCn1ncc2c(N3CC4CCC(C3)O4)nc(-c3ccc(NC(=O)NC(=O)CCNCCN(C)C)cc3)nc21 | 5.74 | 5.09
O=C(Nc1ccc(-c2nc(N3CC4CCC(C3)O4)c3cnn([C@H]4CC[C@]5(CCCO5)CC4)c3n2)cc1)OCCO | – | 5.69
O=C(Nc1ccc(-c2nc(N3CC4CCC(C3)O4)c3sccc3n2)cc1)NC1CC1 | – | 5.00
O=C(Nc1ccncc1)Nc1ccc(-c2nc(N3CC4CCC(C3)O4)c3cnn([C@H]4CC[C@]5(CCCO5)CC4)c3n2)cc1 | – | 5.65
CC(=O)Nc1ccc(NC(=O)Nc2ccc(-c3nc(N4CC5CCC(C4)O5)c4cnn(C)c4n3)cc2)cc1 | 5.98 | 5.56
O=C(NCCO)Nc1ccc(-c2nc(N3CC4CCC(C3)O4)c3sccc3n2)cc1 | – | 5.00

More lines, in order of rising pIC50 (PIK3CG (human)), values ahead:

pIC50 (PIK3CA (human)) | pIC50 (PIK3CG (human)) | SMILES
– | 5.70 | O=C(Nc1ccc(-c2nc(N3CC4CCC(C3)O4)c3cnn([C@H]4CC[C@]5(CCCO5)CC4)c3n2)cc1)Nc1ccc(N2CCNCC2)cc1
– | 5.84 | CN1CCN(c2ccc(NC(=O)Nc3ccc(-c4nc(N5CC6CCC(C5)O6)c5cnn([C@H]6CC[C@]7(CCCO7)CC6)c5n4)cc3)cc2)CC1
6.46 | 5.85 | CN(C)CC(=O)Nc1ccc(NC(=O)Nc2ccc(-c3nc(N4CC5CCC(C4)O5)c4cnn(C)c4n3)cc2)cc1
– | 6.08 | COC1CCC(n2ncc3c(N4CC5CCC(C4)O5)nc(-c4ccc(NC(=O)Nc5ccncc5)cc4)nc32)CC1 (stereo not given)
6.51 | 6.31 | CCn1ncc2c(N3CC4CCC(C3)O4)nc(-c3ccc(NC(=O)NC(=O)CNCCN(C)C)cc3)nc21

From the Kinase Knowledgebase extract (Sharma et al. 2016)
